Patent US7358245B2, “Treatment of gastroesophageal reflux disease” (AstraZenca AB, priority 2001, dated 2008)

Test system: transient lower esophageal sphincter relaxations (TLESRs)
Test: Screening for compounds active against TLESR (motility measurement in dogs)
Assay type: in vivo, Adult Labrador retrievers (dog)
Details: vs five preceding control experiments for each dog
Protocol: Adult Labrador retrievers of both genders, trained to stand in a Pavlov sling, are used. Mucosa-to-skin esophagostomies are formed and the dogs are allowed to recover completely before any experiments are done.
In brief, after fasting for approximately 17 h with free supply of water, a multilumen sleeve/sidehole assembly (Dentsleeve, Adelaide, South Australia) is introduced through the esophagostomy to measure gastric, lower esophageal sphincter (LES) and esophageal pressures. The assembly is perfused with water using a low-compliance manometric perfusion pump (Dentsleeve, Adelaide, South Australia). An air-perfused tube is passed in the oral direction to measure swallows, and an antimony electrode monitored pH, 3 cm above the LES. All signals are amplified and acquired on a personal computer at 10 Hz.
When a baseline measurement free from fasting gastric/LES phase III motor activity has been obtained, placebo (0.9% NaCl) or test compound is administered intravenously (i.v., 0.5 ml/kg) in a foreleg vein. Ten min after i.v. administration, a nutrient meal (10% peptone, 5% D-glucose, 5% Intralipid, pH 3.0) is infused into the stomach through the central lumen of the assembly at 100 ml/min to a final volume of 30 ml/kg. Immediately following the meal, air is insufflated at 40 ml/min. The experimental time from start of nutrient infusion to end of air insufflation is 45 min. The procedure has been validated as a reliable means of triggering TLESRs.
TLESRs is defined as a decrease in lower esophageal sphincter pressure (with reference to intragastric pressure) at a rate of >1 mmHg/s. The relaxation should not be preceded by a pharyngeal signal ≦2 s before its onset in which case the relaxation is classified as swallow-induced. The pressure difference between the LES and the stomach should be less than 2 mmHg, and the duration of the complete relaxation longer than 1 s.
The aminoalkylindole cannabinoid WIN 55,212-2, purchased from Tocris Cookson (Bristol, U.K.), was tested on Adult Labrador retrievers of both genders in accordance with the test model described above.
Inhibition of the number of TLESRs was calculated with regard to the five preceding control experiments for each dog, and the results as set out in Table 1 below were achieved.

SMILES: COc1ccc2c(c1)c(CCN1CCOCC1)c(C)n2C(=O)c1cccc(Cl)c1Cl [L-768,242, (2,3-dichloro-phenyl)-[5-methoxy-2-methyl-3-(2-morpholin-4-yl-ethyl)-indol-1-yl]-methanone]
- % INHIBITION ± SEM (N) of the number of TLESRs (dose 0.3 μmol/kg i.v.): 8 ± 21 (4) %
- % INHIBITION ± SEM (N) of the number of TLESRs (dose 1 μmol/kg i.v.): 44 ± 6 (5) %
- % INHIBITION ± SEM (N) of the number of TLESRs (dose 5 μmol/kg i.v.): 63 ± 5 (4) %
- % INHIBITION ± SEM (N) of the number of TLESRs (dose 7 μmol/kg i.v.): 76 ± 12 (3) %

SMILES: Cc1c(C(=O)c2cccc3ccccc23)c2cccc3c2n1[C@H](CN1CCOCC1)CO3 [WIN 55,212-2, (2-methyl-3-morpholin-4-ylmethyl-3,4-dihydro-5-oxa-2a-aza-acenaphthylen-1-yl)-naphthalen-1-yl-methanone]
- % INHIBITION ± SEM (N) of the number of TLESRs (dose 0.003 mg/kg i.v.): 20 ± 18 (4) %
- % INHIBITION ± SEM (N) of the number of TLESRs (dose 0.01 mg/kg i.v.): 70 ± 10 (4) %
- % INHIBITION ± SEM (N) of the number of TLESRs (dose 0.03 mg/kg i.v.): 82 ± 1 (4) %

SMILES: Cc1c(C(=O)NN2CCCCC2)nn(-c2ccc(Cl)cc2Cl)c1-c1ccc(Cl)cc1 [SR141716A]
- % STIMULATION ± SEM (N) of the number of TLESRs (dose 0.22 μmol/kg i.v.): 43 ± 16 (6) %
